Measured values: paper PMC9740789, “Investigation of In Vitro and In Vivo Metabolism of α-Amanitin in Rats Using Liquid Chromatography-Quadrupole Time-of-Flight Mass Spectrometric Method” (Molecules, 2022)
Where two headings read alike, the source gives them in different places.

Tests used:
[1] = Rat in vivo MetID in pooled rat plasma; conditions: pooled rat plasma after IV 1 mg/kg
Method: (§1) Therefore, in vitro and in vivo MetID were conducted to explore any possible different metabolites between the two systems. The in vitro and in vivo MetID samples were analyzed by a LC-qTOF-MS, and the data were used to elucidate a metabolite of α-amanitin using PeakView® and MetabolitePilot™. The structure of the metabolite of α-amanitin was predicted by MetabolitePilot™. The fragmentation pattern of the predicted metabolite ion from product ion scan was compared to the fragmentation pattern of the parent ion using PeakView®.
For rat in vivo MetID, rat plasma samples collected after IV administration of α-amanitin with the dose of 1 mg/kg were pooled according to the Hamilton pooling method. Then 3 μL of DMSO was added to the 300 μL of pooled rat plasma. A control sample was made by mixing 300 μL of blank rat plasma and 3 μL of 0.5 mg/mL α-amanitin. Eight hundred microliter of 50% ACN in MeOH was added to the pooled rat plasma mixture and a control sample, respectively. Then the mixture was centrifuged at 10,000 rpm for 5 min. Then 900 μL of the supernatants was collected to a fresh E-tube and evaporated for 4 h. After evaporation, samples were reconstituted with 120 μL of 50% MeOH with 5 mM ammonium formate. After centrifugation at 10,000 rpm for 5 min, 100 μL of reconstituted sample was transferred to a LC-vial.
The high-resolution TOF full scan was used for metabolite profiling. […]

[2] = assay type: in vitro ADME, rat; conditions: for Long-term stability, mean accuracy / Freeze-thaw stability, mean accuracy / Short-term stability, mean accuracy: rat plasma, LC-qTOF-MS, triplicate or more; for Long-term stability, mean accuracy: 2 weeks, –20 °C; for Freeze-thaw stability, mean accuracy: 3 cycles, –20 °C and RT; for Short-term stability, mean accuracy: 4 h, RT
Method: To evaluate the stability of α-amanitin in rat plasma under the actual experimental environments, some stability tests were also conducted. The accuracy (%) and precision (% CV) of the stability test met the acceptance criteria of ±25%, identifying α-amanitin was stable under the short-term, long-term, and freeze-thaw conditions.
The method qualification was performed with “fit-for-purpose” criteria which are suitable for discovery stage research. The qualification contained seven levels of STD and three levels of QC in duplicate. […] Preliminary stability tests were performed at low, medium, and high QC in rat plasma. The stability test was performed under three different conditions: a short-term, a long-term, and a freeze-thaw condition. The short-term stability test was conducted at room temperature (RT) for 4 h. The long-term stability was conducted at –20 °C for 2 weeks. The freeze-thaw stability was conducted for three freeze and thaw cycles at –20 °C and RT. The extraction recovery of protein precipitation was evaluated by analyzing the difference between extracted Medium-QC (165 ng/mL) samples and post-extraction QC samples. The post-extraction QC sample was prepared by spiking the α-amanitin after protein precipitation.
The precision and accuracy of the acceptance criteria for this qualification runs were within ± 25% which are also similar to the discovery-stage bioanalytical criteria in pharmaceutical industry. All experiments were performed in triplicate or more.

[3] = In vitro MetID in CLM and HLM; assay type: in vitro ADME, cynomolgus monkey, human; conditions: in vitro MetID with GSH in liver microsomes of 5 species
Method: as §1
In vitro MetID was conducted in 5 species (mouse, rat, cynomolgus monkey, dog, and human) of liver microsomes. Cofactors (NADPH solution A and B, 5 mM UDPGA, and 0.5 mM GSH), compound (2 mg/mL of α-amanitin), and DW were mixed and pre-incubated for 5 min at 37 °C. After the pre-incubation, 20 μL of liver microsome (20 mg/mL) was added to 380 μL of cofactor mixture and incubated for 0 and 120 min at 37 °C. After the incubation for each time point, 150 μL of the mixture was transferred to 450 μL of 50% ACN in MeOH for stopping the reaction. Then the mixture was centrifuged at 10,000 rpm for 5 min. Then 550 μL of the supernatant was collected in a fresh E-tube and evaporated for 4 h. After evaporation, samples were reconstituted with 60 μL of 50% MeOH with 5 mM ammonium formate. […]

[4] = Semi-mass balance study in rats; assay type: in vivo, rat; conditions: for dose excreted: Sprague-Dawley, rat
Method: The excretion characteristic of α-amanitin after IV and PO administration is shown in Table 7, and the time to recovery of α-amanitin profile is shown in Figure 5. The recovery represents the percentage of the excreted amount (mg) to the administrated amount (mg).
A semi-mass balance study was performed to explore the major elimination route of α-amanitin in rats. A non-radiolabeled α-amanitin was used for the semi-mass balance study which seems acceptable due to low metabolic turn-over of α-amanitin.
For the semi-mass balance study, the housed rats were prepared with a bile duct cannulation and administrated by IV bolus in a lateral tail vein or by PO at 1 mg/kg for each dosing route. Urine and feces were collected using a metabolic cage (Jeungdo Bio & Plant co., Seoul, Republic of Korea), and bile was collected through a bile duct cannula. The sampling time interval were 0–4, 4–8, 8–24, and 24–48 h after administration. The urine, bile, and feces samples were stored at –20 °C until further analysis.

CC[C@H](C)[C@@H]1NC(=O)CNC(=O)[C@@H]2Cc3c([nH]c4cc(O)ccc34)[S@+]([O-])C[C@H](NC(=O)CNC1=O)C(=O)N[C@@H](CC(N)=O)C(=O)N1C[C@H](O)C[C@H]1C(=O)N[C@@H]([C@@H](C)[C@@H](O)CO)C(=O)N2 [α-amanitin]
Other metabolites in in vivo rat plasma [1]: no other significant metabolites
Long-term stability, mean accuracy ([2]; high QC 1820 ng/mL): 103%
Long-term stability, mean accuracy ([2]; low QC 15.0 ng/mL): 106%
Long-term stability, mean accuracy ([2]; medium QC 165 ng/mL): 118%
Freeze-thaw stability, mean accuracy ([2]; high QC 1820 ng/mL): 114%
Freeze-thaw stability, mean accuracy ([2]; low QC 15.0 ng/mL): 94.9%
Freeze-thaw stability, mean accuracy ([2]; medium QC 165 ng/mL): 103%
Short-term stability, mean accuracy ([2]; high QC 1820 ng/mL): 95.7%
Short-term stability, mean accuracy ([2]; low QC 15.0 ng/mL): 81.6%
Short-term stability, mean accuracy ([2]; medium QC 165 ng/mL): 80.5%
Stability in rat plasma (in words) ([2]; short-term, long-term, and freeze-thaw conditions, acceptance criteria ±25%): stable
Reactive metabolites (GSH adducts) [3]: no reactive metabolites with GSH adducts were detected
dose excreted ([4]; feces, bile duct cannulated rats, IV bolus 1 mg/kg, collection 0–48 h, excreted amount/administered amount, unchanged α-amanitin, LC-qTOF-MS, read-out: Recovery in feces): < 0.01%
dose excreted ([4]; feces, bile duct cannulated rats, PO 1 mg/kg, collection 0–48 h, excreted amount/administered amount, unchanged α-amanitin, LC-qTOF-MS, read-out: Recovery in feces): 22%
dose excreted ([4]; urine, bile duct cannulated rats, IV bolus 1 mg/kg, collection 0–48 h, excreted amount/administered amount, unchanged α-amanitin, LC-qTOF-MS, read-out: Recovery in urine): 67.9%
dose excreted ([4]; urine, bile duct cannulated rats, PO 1 mg/kg, collection 0–48 h, excreted amount/administered amount, unchanged α-amanitin, LC-qTOF-MS, read-out: Recovery in urine): 1.45%
dose excreted ([4]; bile duct cannulated rats, IV bolus 1 mg/kg, collection 0–48 h, excreted amount/administered amount, unchanged α-amanitin, LC-qTOF-MS, read-out: Recovery in bile): 1%
dose excreted ([4]; bile duct cannulated rats, PO 1 mg/kg, collection 0–48 h, excreted amount/administered amount, unchanged α-amanitin, LC-qTOF-MS, read-out: Recovery in bile): 0.05%
dose excreted ([4]; rats, IV 1 mg/kg, urine + bile + feces, 0–48 h, read-out: Total recovery): 68.9%
dose excreted ([4]; rats, PO 1 mg/kg, urine + bile + feces, 0–48 h, read-out: Total recovery): 23.5%
Time within which most of the administered α-amanitin was excreted in urine ([4]; rats, IV 1 mg/kg): ≤ 8 h
